For the assay, the target named is T1, InhA (enoyl-acyl carrier protein reductase) (Mycobacterium tuberculosis, UniProt P9WGR1).
T1 construct: wild-type InhA
As to the kind of experiment: biochemical.

T1 sequence (P9WGR1 whole entry, looked up): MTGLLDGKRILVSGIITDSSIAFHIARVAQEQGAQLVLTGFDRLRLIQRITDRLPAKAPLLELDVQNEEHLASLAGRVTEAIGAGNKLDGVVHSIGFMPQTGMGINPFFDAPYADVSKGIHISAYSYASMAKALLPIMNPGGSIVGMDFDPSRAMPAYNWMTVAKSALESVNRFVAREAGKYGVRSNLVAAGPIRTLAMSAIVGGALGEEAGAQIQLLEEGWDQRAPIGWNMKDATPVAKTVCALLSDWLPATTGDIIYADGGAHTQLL

Broadly, the IC50 is the point on the concentration scale where inhibition reaches its midpoint. `CCN(CC)C(=O)/C(C#N)=C/c1cc(O)c(O)c([N+](=O)[O-])c1` [entacapone] came in with an IC50 of 79 ± 10 µM.

Source of the values: PMC2699117, “Drug Discovery Using Chemical Systems Biology: Repositioning the Safe Medicine Comtan to Treat Multi-Drug and Extensively Drug Resistant Tuberculosis” (PLoS Computational Biology, 2009).
